From US20150217046A1, “DOSING REGIMENS FOR SUBCUTANEOUSLY INFUSIBLE ACIDIC COMPOSITIONS” (SynAgile Corporation, priority 2012, published 2015)
Where two headings read alike, the source gives them in different places.

Assays:
[1] = Swelling/induration and histopathology after continuous subcutaneous infusion (Example 1); assay type: in vivo, Yucatan minipigs; conditions: for microscopic changes at infused site: pH 4.6
From the text: The pharmaceutical compositions were citrate buffered at pH 4.6 where most, but not all, of the LDEE is in the salt form, i.e., there is also some free base.

[2] = Infusion site reactions, intermittent subcutaneous infusion of 200 mg/mL LDEE pH 4.5 (Example 2); assay type: in vivo, minipigs
From the text: Each infusion site was spaced a minimum of 2.5 inches (6.3 cm) apart from any other infusion site.
In all cases, the infusion site reaction constituted a swelling of 0.5-4.0 cm diameter, typically 0.5-1.5 cm.

[3] = Infusion site reactions, intermittent and continuous subcutaneous infusion of 100 mg/mL LDEE pH 4.5 (Example 3); assay type: in vivo, minipigs
From the text: There were four treatment groups:
A: Six infusions, intermittent with ibuprofen.
B: Six infusions, intermittent with no ibuprofen.
C: Six infusions, continuous infusion with ibuprofen.
D: Six infusions, continuous infusion with no ibuprofen.

[4] = Skin symptoms and behavior after subcutaneous LDEE infusion (Example 7); assay type: in vivo, minipigs
[5] = Rate of hydrolysis of LD esters in solution; assay type: physicochemical
Description: At a particular temperature and pH, the LDEs formed of LD and of different alcohols are hydrolyzed prior to their infusion at different rates. […] The rate of hydrolysis of LDE salts also depends on the anion, i.e., on the acid forming the LDE salt. LDE is hydrolyzed more rapidly when carboxylate anions and/or carboxylic acids replace the chloride anion or HCl. The rate of hydrolysis of the salt formed of LDEE and acetic acid can be about 3 times faster at about pH 4.5 at about 23° C. than that of LDEE.HCl, the salt formed of LDEE and HCl. The rate of hydrolysis at a particular pH and temperature can therefore depend on the buffering agent, e.g., citric acid and/or citrate anions, becoming faster when their concentration is elevated. Typically, the concentration of the buffering ions, i.e., the combined concentrations of citrates and citric acid, is between about 5 mM and 100 mM, for example between about 10 mM and 50 mM. The rate of hydrolysis can increase, for example, when the buffering citric acid-citrate concentration is increased.
In aqueous LDE salt pharmaceutical compositions, the hydrolysis rates generally decrease as the pH decreases, and the shelf life of the LDE salt consequently increases, unless the pH is about 1.7±0.5 or less. […] In acidic pharmaceutical compositions the amines of the LDEs are protonated, making the LDEs cations. […] The rates of hydrolysis generally increase with temperature, and may at least about double or about triple for each 10° C. increase, correspondingly decreasing upon cooling.

[6] = minipig A day 1: 90 mg LDEE (100 mg/mL, pH 3.7) s.c. continuous over 8 h, oral Lodosyn
[7] = minipig A day 8: 90 mg LDEE (100 mg/mL, pH 3.7) re-infused at contralateral site over 8 h, pre-infused with 15 units human hyaluronidase

## CCOC(=O)[C@@H](N)Cc1ccc(O)c(O)c1 [LDEE, levodopa ethyl ester]
[1]; 1,142 mg LDEE over 16 hours continuous s.c., 326 mg/mL and 220 mg/mL, citrate buffered pH 4.6
  swelling/induration of infused sites: Most, but not all, of the infused sites were swollen and/or developed firm indurations
[1]; one month after infusion of 328 mg LDEE/mL (1.45 M)
  microscopic changes at infused site: mild to moderate granulomatous inflammation of the panniculus
[1]; one week after infusion of 220 mg LDEE per mL (0.98 M)
  microscopic changes at infused site: mild thrombus formation in the blood vessels of the panniculus, with minimal hemorrhage and subacute inflammation
[1]; three weeks after infusion of 220 mg LDEE per mL (0.98 M), minipig A
  microscopic changes at infused site: minimal hemorrhage of the dermis and panniculus
[1]; three weeks after infusion of 220 mg LDEE per mL (0.98 M), minipig B
  microscopic changes at infused site: mild granulomatous inflammation
[2]; 200 mg/mL (0.89 M) LDEE pH 4.5, 140 mg, intermittent s.c., typically 0.5-1.5 cm
  diameter of swelling (infusion site reaction): 0.5-4.0 cm
[2]; 200 mg/mL (0.89M) LDEE pH 4.5, 140 mg, 14 days post-infusion
  rate of small granuloma formation: 33%
[2]; 200 mg/mL (0.89 M) LDEE pH 4.5, 14-15 days post-infusion
  infusion site reactions: 8 out of 24
[3]; 100 mg/mL (0.44 M) LDEE pH 4.5, 281 mg over 16 h s.c.
  diameter of firm swelling (infusion site reaction): 0.5-1.5 cm
[3]; 100 mg/mL (0.44 M) LDEE pH 4.5, 281 mg over 16 h s.c., Treatment A intermittent with ibuprofen, 3 Days Post-Infusion
  # of Infusion Site Reactions/# of Infusion Sites: 2/6
[3]; 100 mg/mL (0.44 M) LDEE pH 4.5, 281 mg over 16 h s.c., Treatment A intermittent with ibuprofen, 10 Days Post-Infusion
  # of Infusion Site Reactions/# of Infusion Sites: 5/6
[3]; 100 mg/mL (0.44 M) LDEE pH 4.5, 281 mg over 16 h s.c., Treatment A intermittent with ibuprofen, 15 Days Post-Infusion
  # of Infusion Site Reactions/# of Infusion Sites: 0/6
[3]; 100 mg/mL (0.44 M) LDEE pH 4.5, 281 mg over 16 h s.c., Treatment A intermittent with ibuprofen, Immediately Post-Infusion
  # of Infusion Site Reactions/# of Infusion Sites: 0/6
[3]; 100 mg/mL (0.44 M) LDEE pH 4.5, 281 mg over 16 h s.c., Treatment B intermittent, no ibuprofen, 3 Days Post-Infusion
  # of Infusion Site Reactions/# of Infusion Sites: 1/6
[3]; 100 mg/mL (0.44 M) LDEE pH 4.5, 281 mg over 16 h s.c., Treatment B intermittent, no ibuprofen, 10 Days Post-Infusion
  # of Infusion Site Reactions/# of Infusion Sites: 1/6
[3]; 100 mg/mL (0.44 M) LDEE pH 4.5, 281 mg over 16 h s.c., Treatment B intermittent, no ibuprofen, 15 Days Post-Infusion
  # of Infusion Site Reactions/# of Infusion Sites: 0/6
[3]; 100 mg/mL (0.44 M) LDEE pH 4.5, 281 mg over 16 h s.c., Treatment B intermittent, no ibuprofen, Immediately Post-Infusion
  # of Infusion Site Reactions/# of Infusion Sites: 0/6
[3]; 100 mg/mL (0.44 M) LDEE pH 4.5, 281 mg over 16 h s.c., Treatment C continuous with ibuprofen, 3 Days Post-Infusion
  # of Infusion Site Reactions/# of Infusion Sites: 2/6
[3]; 100 mg/mL (0.44 M) LDEE pH 4.5, 281 mg over 16 h s.c., Treatment C continuous with ibuprofen, 10 Days Post-Infusion
  # of Infusion Site Reactions/# of Infusion Sites: 6/6
[3]; 100 mg/mL (0.44 M) LDEE pH 4.5, 281 mg over 16 h s.c., Treatment C continuous with ibuprofen, 15 Days Post-Infusion
  # of Infusion Site Reactions/# of Infusion Sites: 0/6
[3]; 100 mg/mL (0.44 M) LDEE pH 4.5, 281 mg over 16 h s.c., Treatment C continuous with ibuprofen, Immediately Post-Infusion
  # of Infusion Site Reactions/# of Infusion Sites: 0/6
[3]; 100 mg/mL (0.44 M) LDEE pH 4.5, 281 mg over 16 h s.c., Treatment D continuous, no ibuprofen, 3 Days Post-Infusion
  # of Infusion Site Reactions/# of Infusion Sites: 4/6
[3]; 100 mg/mL (0.44 M) LDEE pH 4.5, 281 mg over 16 h s.c., Treatment D continuous, no ibuprofen, 10 Days Post-Infusion
  # of Infusion Site Reactions/# of Infusion Sites: 1/6
[3]; 100 mg/mL (0.44 M) LDEE pH 4.5, 281 mg over 16 h s.c., Treatment D continuous, no ibuprofen, 15 Days Post-Infusion
  # of Infusion Site Reactions/# of Infusion Sites: 0/6
[3]; 100 mg/mL (0.44 M) LDEE pH 4.5, 281 mg over 16 h s.c., Treatment D continuous, no ibuprofen, Immediately Post-Infusion
  # of Infusion Site Reactions/# of Infusion Sites: 0/6
[3]; 100 mg/mL (0.44 M) LDEE pH 4.5, 14-15 days post-infusion
  infusion site reactions, all treatments pooled: 0 out of 24
[3]; 281 mg LDEE in 100 mg/mL (0.44 M), pH 4.5, 24 out of 24 infusions
  granuloma formation: no granuloma formation
[4]; LDEE dose rate raising plasma LD above 10,000 ng/mL, even above 15,000 ng/mL
  behavior of the minipigs: did not result in a readily observable change in the behavior of the minipigs
[4]; minipig D only, 7 days after first infusion and again after end of 8th day reinfusion, 560 mg LDEE 100 mg/mL pH 3.7
  diameter of slightly raised swelling at infused site: about 1 cm
[5]; near pH 7, about 37° C.
  rate of hydrolysis relative to LDME: about four times faster
[5]; neutral pH
  time to hydrolysis: within hours or less
Average of the 10 minipig/day infusions of Table 10
  Plasma LD, 480 minutes after start of infusion: 7,870 ng/mL
Minipig A day 1: 90 mg LDEE (100 mg/mL, pH 3.7) s.c. continuous over 8 h
  Plasma LD, 480 minutes after start of infusion: 1,051 ng/mL
[6]
  40 minutes Post-Infusion plasma LD: 1,093 ng/mL
  End of Infusion Plasma LD: 1,051 ng/mL
[7]
  40 minutes Post-Infusion plasma LD: 691 ng/mL
  100 minutes Post-Infusion plasma LD: 342 ng/mL
  170 minutes Post-Infusion plasma LD: 185 ng/mL
  End of Infusion Plasma LD: 679 ng/mL
Minipig A day 8: 90 mg LDEE (100 mg/mL, pH 3.7), contralateral site, 8 h, hyaluronidase pre-infusion
  Plasma LD, 480 minutes after start of infusion: 679 ng/mL
